According to patent US20200157048A1, “(2E,4E)-5-PHENYL-PENTA-2,4-DIEN-1-ONE DERIVATIVE” (BIOWAY., INC, priority 2018, published 2020):
“Also recorded” adds a separate entry of the source.

Experiments:
Huh-7 cells = test: Oil-Red O staining and lipid accumulation in steatosis-induced Huh-7 cells; type: cell-based; settings: Huh-7 cells pretreated with OA/PA (R-28: OA); 10, 20 or 40 μM (R-28: 2, 10, 50 μM); 24 hours
Description: Huh-7 cells were maintained in a RPMI1640 medium containing 10% FBS, 100 U/mL of penicillin, and 100 μg/mL of streptomycin. All reagents were purchased from Life Technologies Corporation (Grand Island, N.Y., USA).
The Huh-7 cells were incubated under an atmosphere containing 5% CO2 at 37° C.
In Experimental Example 4, the Huh-7 cells were plated in 24 wells at 3×10^5 cells/mL and incubated under an atmosphere containing 5% CO2 at 37° C.
(§1) One day later, the cell density approached about 80 to 90%. The medium was changed to an FBS-free RPMI1640 medium, and incubated under an atmosphere containing 5% CO2 at 37° C. for 24 hours.
Huh-7 cells of each well, excluding control cells, were pretreated with an OA/PA mixture (however, R-28 is OA) for 1 hour to induce steatosis. Control cells were pretreated with 1% FA-free BSA.
Each well was treated with 10 μM, 20 μM, or 40 μM of a test compound (however, for R-28, 2 μM, 10 μM and 50 μM), and cultured for 24 hours. The control cells and the OA/PA-treated cells were treated with DMSO. […]
Images were obtained from a Cytation 5 Cell Imaging Multi-Mode Reader (BioTek, Winooski, Vt., USA). […]
200 μL of isopropyl alcohol was added to each well, and the cells were collected in a 96-well plate. Absorbance was measured at 540 nm, and data was analyzed.

Fgf21 mRNA = test: qRT-PCR Fgf21 mRNA level in steatosis-induced Huh-7 cells; type: cell-based, Human; settings: steatosis-induced (OA/PA) Huh-7 cells; 10 μM; 24 hours
Description: (§2) In Experimental Example 5, the Huh-7 cells were plated in 6 wells at 4×10^5 cells/mL and incubated under an atmosphere containing 5% CO2 at 37° C.
as §1
(§3) Huh-7 cells of each well, excluding control cells, were pretreated with an OA/PA mixture for one hour to induce steatosis. The control cells were pretreated with 1% FA-free BSA.
(§4) Each well was treated with 10 μM of a test compound, and then the cells were incubated for 24 hours. The control cells and OA/PA-treated cells were treated with DMSO. Cells of a positive control were treated with 10 μM of resveratrol, 10 μM of piperine, and 10 μM of YU2014. The medium was entirely aspirated, and the cells were washed with PBS (phosphate buffered saline, Corning, Manassas, Va., USA) two times.
(§5) Total RNA was extracted using a RNeasy RNA isolation kit (Qiagen, Hilden, Germany).
(§6) 10 μL of β-mercaptoethanol (Sigma-Aldrich) per 1 mL of lysis buffer was added, thereby preparing an RNA lysis buffer. […]
(§7) An RNA concentration was measured at O.D. 260 nm using a nanophotometer N60 (Implen, Munich, Germany). The concentration and purity of RNA were measured at O.D. 260/280 nm and calculated as a ratio. […]
(§8) Quantitative analyses for the genes in Table 3 were performed.

Fas mRNA = test: qRT-PCR Fas mRNA level in steatosis-induced Huh-7 cells; type: cell-based, Human; settings: steatosis-induced (OA/PA) Huh-7 cells; 10 μM; 24 hours
Description: as §2, §1, §3, §4, §5, §6, §7, §8

Srebp1c mRNA = test: qRT-PCR Srebp1c mRNA level in steatosis-induced Huh-7 cells; type: cell-based, Human; settings: steatosis-induced (OA/PA) Huh-7 cells; 10 μM; 24 hours
Description: as §2, §1, §3, §4, §5, §6, §7, §8

Which “degree of lipid staining (ORO, absorbance at 540 nm, FIGS. 5-8)” value (Huh-7 cells) does the source give for `CSc1ccc(/C=C/C=C/C(=O)N2CCCCC2)cc1` [YU2014, (2E,4E)-5-(4-(methylthio)phenyl)-1-(piperidine-1-yl)penta-2,4-dien-1-one] here?
Its value is “not greatly changed”.

And the “Fgf21 mRNA level (FIG. 12)” value (Fgf21 mRNA)?
The value was “almost no increase; also recorded: no effect”.

What about the “Fas mRNA level (FIG. 13)” value (Fas mRNA) of the same compound?
The value was “reduce”.

And the “Srebp1c mRNA level (FIG. 14)” value (Srebp1c mRNA)?
Its value is “reduce”.
